The values that follow come from article PMC6150406, “Adding an Artificial Tail—Anchor to a Peptide-Based HIV-1 Fusion Inhibitor for Improvement of Its Potency and Resistance Profile” (Molecules : A Journal of Synthetic Chemistry and Natural …, 2017).

Like-named read-outs stand apart in the source and are kept apart here. Where a SMILES comes first, the peptide text is derived from it. Where only a bound is given, the exact number is not on record here.

Series [1] has as its system cell–cell fusion between H9/HIV-1IIIB cells and MT-2 cells. The note with it: read-out: IC50, cell–cell fusion; H9/HIV-1IIIB (Calcein AM) with MT-2 cells, 37 °C, 2 h. On the procedure: A dye transfer assay was used to detect HIV-1 Env-mediated cell-cell fusion as described previously. […] For each well of the 96-well plate, 50 μL 2 × 10^4/mL labeled H9/HIV-1IIIB cells were then incubated with 100 μL 1 × 10^5/mL MT-2 cells at 37 °C for 2 h in the presence or absence of the tested peptide at graded concentrations. […] The IC50 values were calculated by using the Calcusyn computer program (Biosoft, Ferguson, MO, USA).

For series [2] the following is noted: clinical use; cited from earlier work.
The target of series [3] is T1, 6-HB formation between N46 and C34 (Human immunodeficiency virus type 1 group M subtype B, UniProt P04578).
T1 construct: NHR peptide N46 (aa 536-581 of NHR)
T1 sequence (P04578 536-581): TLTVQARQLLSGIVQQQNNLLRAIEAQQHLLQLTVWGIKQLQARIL
The series can be described thus: Inhibition of 6-HB formation between N46 and C34 (ELISA, NC-1). Type of series: biochemical, HIV-1. Conditions: ELISA with NC-1 mAb; 1 μM N46; 37 °C 30 min then 1 h; A450. On the procedure:
The inhibitory activity of peptides on 6-HB formation was measured by a modified ELISA as previously described. Briefly, a 96-well polystyrene plate (Costar, Corning Inc., Corning, NY, USA) was coated with 50 μL 2 μg/mL NY364 (a polyclonal antibody for HIV-1 gp41 subunit) in 0.1 M Tris buffer (pH 8.8). A mixture of 1 μM N46 and C-peptide with graded concentrations was added to the coated plate after incubation at 37 °C for 30 min. After another 1 hour incubation at 37 °C, the plate was washed with washing buffer (PBS containing 0.1% Tween 20) three times and refilled by 50 μL 1 μg/mL NC-1 (a monoclonal antibody specific for HIV-1 gp41 6-HB formed by NHR and CHR). Afterwards, 50 μL of horseradish peroxidase (HRP)-labeled rabbit anti-mouse antibody (Sigma, St. Louis, MO, USA) (1:4000 diluted) were added to the wells of plate, followed by incubation for 1 h and washing. Finally, the substrate 3,3,5,5-tetramethylbenzidine (TMB, Sigma, St. Louis, MO, USA) was added. Absorbance at 450 nm (A450) was tested by an ELISA reader (Ultra 384, Tecan, NC, USA).

The next series deals with 90US_873 (B, R5). The note with it: clinical isolate 90US_873 (B, R5); CEMx174 5.25 M7 cells, p24 ELISA day 7. As to the method:
(§1) Inhibitory activities of peptides on infection by laboratory-adapted HIV-1 X4 strain IIIB and HIV-1 R5 strain Bal, and HIV-1 clinical strains, as well as T20-, T2635- and HP23-resistant strains, were determined as described previously. For each well of the 96-well plate, 104 MT-2 cells or CEMx174 5.25 M7 cells with graded concentrations of peptide were infected by […] TCID50 of the HIV-1 virus X4 or R5 strains, respectively. After overnight culture, the medium was replaced with fresh RPMI 1640 medium containing 10% FBS. Fifty microliters of culture supernatant were collected from each well on the fourth day for MT-2 cells and the seventh day for CEMx174 5.25 M7 cells. The supernatant was mixed with equal volumes of 5% Triton X-100. The p24 antigen was detected by ELISA as previously described. IC50 values were calculated using the Calcusyn software program (Biosoft, Ferguson, MO, USA).

In another series the test system is 92TH009 (A/E, R5). Conditions: clinical isolate 92TH009 (A/E, R5); CEMx174 5.25 M7 cells, p24 ELISA day 7. As to the method: as §1
A further series concerns 92UG024 (D, X4). Conditions: clinical isolate 92UG024 (D, X4); MT-2 cells, p24 ELISA day 4. On the procedure:
as §1

Another series concerns 93BR020 (F, X4/R5). Conditions: clinical isolate 93BR020 (F, X4/R5); p24 ELISA. As to the method:
as §1

The next series deals with 93IN101 (C, R5). Conditions: clinical isolate 93IN101 (C, R5); CEMx174 5.25 M7 cells, p24 ELISA day 7. As to the method: as §1
Another series relates to BK132/GS009 (B, X4). Conditions: clinical isolate BK132/GS009 (B, X4); MT-2 cells, p24 ELISA day 4. On the procedure: as §1
The test system of a further series is HIV-1 A6V. The note with it: T2635-resistant A6V; p24 ELISA. On the procedure:
as §1

For the next series, the system named is HIV-1 Bal (R5 virus). The note with it: read-out: IC50, HIV-1 Bal infection; CEMx174 5.25 M7 cells; p24 ELISA, seventh day. On the procedure: as §1
The test system of another series is HIV-1 D36G/E49K/N126K. The note with it: HP23-resistant D36G/E49K/N126K; p24 ELISA. On the procedure:
as §1

The test system of the next series is HIV-1 E49K/N126K. The note with it: HP23-resistant E49K/N126K; p24 ELISA. As to the method: as §1
For the next series, the system named is HIV-1 E49K. The note with it: HP23-resistant E49K; p24 ELISA. On the procedure:
as §1

A further series relates to HIV-1 H3C. The note with it: T2635-resistant H3C; p24 ELISA. As to the method: as §1
The next series relates to HIV-1 IIIB (X4 virus). The note with it: read-out: IC50, HIV-1 IIIB infection; MT-2 cells; p24 ELISA, fourth day. As to the method: as §1
For the next series, the system named is HIV-1 K154Q. The note with it: T2635-resistant K154Q; p24 ELISA. On the procedure: as §1
The test system of a further series is HIV-1 K90E/N126K. The note with it: T2635-resistant K90E/N126K; p24 ELISA. As to the method: as §1
For a further series, the system named is HIV-1 K90E. The note with it: T2635-resistant K90E; p24 ELISA. As to the method: as §1
The test system of series [4] is HIV-1 L34S/D36G/E49K/E136G. Conditions: HP23-resistant L34S/D36G/E49K/E136G; p24 ELISA. As to the method:
as §1

A further series has as its system HIV-1 N113E. Conditions: T2635-resistant N113E; p24 ELISA. As to the method: as §1
The subject of a further series is HIV-1 N126K. Conditions: T2635-resistant N126K; p24 ELISA. As to the method: as §1
A further series deals with HIV-1 Q66R/N113E. Conditions: T2635-resistant Q66R/N113E; p24 ELISA. On the procedure:
as §1

Another series deals with HIV-1 Q66R. Conditions: T2635-resistant Q66R; p24 ELISA. On the procedure: as §1
A further series concerns HIV-1 Q79E/N126K. Conditions: T2635-resistant Q79E/N126K; p24 ELISA. As to the method: as §1
The next series deals with HIV-1 Q79E. Conditions: T2635-resistant Q79E; p24 ELISA. As to the method: as §1
A further series concerns HIV-1 V38A, N42D. The note with it: T20-resistant V38A, p24 ELISA. On the procedure: as §1
Another series has as its system HIV-1 V38A, N42T. The note with it: T20-resistant V38A, p24 ELISA. On the procedure:
as §1

For the next series, the system named is HIV-1 V38A. The note with it: T20-resistant V38A; p24 ELISA. On the procedure: as §1
For a further series, the system named is HIV-1 V38E, N42S. The note with it: T20-resistant V38E, p24 ELISA. As to the method:
as §1

The subject of a further series is HIV-1 WT. The note with it: WT of T20-resistant panel; p24 ELISA. As to the method: as §1
The test system of a further series is HIV-1 wild-type. Conditions: p24 ELISA. On the procedure: as §1
In another series the test system is KER2018 (A, R5). Conditions: clinical isolate KER2018 (A, R5); CEMx174 5.25 M7 cells, p24 ELISA day 7. As to the method: as §1
For the next series, the system named is KNH1135 (A, R5). Conditions: clinical isolate KNH1135 (A, R5); CEMx174 5.25 M7 cells, p24 ELISA day 7. On the procedure:
as §1

For another series, the system named is NP1525 (A/E, X4/R5). Conditions: clinical isolate NP1525 (A/E, X4/R5); p24 ELISA. As to the method:
as §1

In the next series the test system is US4GS007 (B, R5). The note with it: clinical isolate US4GS007 (B, R5); CEMx174 5.25 M7 cells, p24 ELISA day 7. On the procedure:
as §1

On to enfuvirtide, for which, in [1], the 50% inhibitory concentration (IC50) was 16.6 nM. For the same compound, in series [2], the “half-life (in words)” value was “short half-life” and the “oral bioavailability (in words)” value is listed as “lack of oral bioavailability”.

Take `CC[C@H](C)[C@H](NC(=O)[C@H](CCC(=O)O)NC(=O)[C@H](CCC(=O)O)NC(=O)[C@@H](NC(=O)[C@H](CCCCN)NC(=O)[C@H](CCCCN)NC(=O)[C@@H](NC(=O)[C@H](Cc1ccc(O)cc1)NC(=O)[C@H](CCC(=O)O)NC(=O)[C@H](CCC(=O)O)NC(=O)[C@@H](NC(=O)[C@H](CCCCN)NC(=O)[C@H](CCCCN)NC(=O)[C@H](CCC(=O)O)NC(=O)[C@H](Cc1c[nH]c2ccccc12)NC(=O)[C@H](CCC(=O)O)NC(=O)[C@H](CCC(=O)O)NC(=O)[C@H](Cc1c[nH]c2ccccc12)NC(=O)[C@@H](NC(=O)[C@H](CCSC)NC(=O)[C@@H](N)CCC(=O)O)[C@@H](C)O)[C@@H](C)CC)[C@@H](C)O)[C@@H](C)CC)C(=O)N[C@@H](CC(C)C)C(=O)N[C@@H](CCCCN)C(=O)O` [HP23] (H-EMTWEEWEKKIEEYTKKIEEILK-OH): the IC50 is 3720 nM in [3]; 5.12 nM in series [1]; 3.4 ± 0.6 nM with 90US_873 (B, R5); 0.8 ± 0.2 nM in the series on 92TH009 (A/E, R5); 3.5 ± 0.2 nM in the series on 92UG024 (D, X4); 4.5 ± 0.2 nM with 93BR020 (F, X4/R5). Moreover, the half-inhibitory concentration (IC50) with 93IN101 (C, R5) is 3.7 ± 0.3 nM; in the series on BK132/GS009 (B, X4), 7.2 ± 0.5 nM; with HIV-1 A6V, 1.6 ± 0.5 nM; in the series on HIV-1 Bal (R5 virus), 5.96 nM; in the series on HIV-1 D36G/E49K/N126K, greater than 60 nM; with HIV-1 E49K/N126K it was 53.8 ± 1.2 nM. Further, the IC50 with HIV-1 E49K was determined as 13.4 ± 0.7 nM; in the series with HIV-1 H3C it was 5.4 ± 0.4 nM; in the series with HIV-1 IIIB (X4 virus), 1.68 nM; with HIV-1 K154Q it was 7.4 ± 0.4 nM; in the series with HIV-1 K90E/N126K, 4.2 ± 0.3 nM; in the series on HIV-1 K90E, 9.4 ± 0.3 nM. The IC50 in series [4] is greater than 60 nM; in the series with HIV-1 N113E, 2.3 ± 0.5 nM; with HIV-1 N126K, 8.6 ± 0.4 nM; in the series with HIV-1 Q66R/N113E, 3.6 ± 0.3 nM; in the series with HIV-1 Q66R, 2.8 ± 0.1 nM; with HIV-1 Q79E/N126K, 5.2 ± 0.4 nM. The half-maximal inhibitory concentration (IC50) was determined as 4.2 ± 0.7 nM in the series on HIV-1 Q79E; 2.9 ± 0.3 nM in the series on HIV-1 V38A, N42D; 1.5 ± 0.3 nM with HIV-1 V38A, N42T; 2.1 ± 0.7 nM in the series with HIV-1 V38A; 6.2 ± 0.3 nM in the series with HIV-1 V38E, N42S; 3.1 ± 0.1 nM in the series with HIV-1 WT. Also, the IC50 with HIV-1 wild-type (wild-type of HP23-resistant panel) is 3.3 ± 0.3 nM; in the series with HIV-1 wild-type (wild-type of T2635-resistant panel), 2.8 ± 0.2 nM; in the series on KER2018 (A, R5), 1.9 ± 0.2 nM; in the series on KNH1135 (A, R5), 2.2 ± 0.3 nM; with NP1525 (A/E, X4/R5) it was 9.5 ± 0.6 nM; with US4GS007 (B, R5) it was 3.9 ± 0.6 nM.
